Source: ChEMBL document CHEMBL1201862, “PubChem BioAssay data set” (2004)
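96-well plates; 48 h exposure; 5 concentrations. Endpoints by linear interpolation between flanking doses. Not reached: highest tested concentration assigned. GI50 = concentration required for 50% inhibition of growth.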 The source made the active and inactive calls. No stated cut-off is given here; in the data, active = GI50 up to about 1.1 µM and inactive = higher.

Legend:
Assay in all cases: DTP human tumour cell line panel, 48 h
786-0 = system: 786-0
OVCAR-3 = system: OVCAR-3
HCT-15 = system: HCT-15
SK-MEL-2 = system: SK-MEL-2
LXFL 529 = system: LXFL 529
SK-MEL-28 = system: SK-MEL-28
SF-539 = system: SF-539
M19-MEL = system: M19-MEL
CCRF-CEM = system: CCRF-CEM
ACHN = system: ACHN
HCT-116 = system: HCT-116
KM-20L2 = system: KM-20L2
UACC-62 = system: UACC-62
NCI-H226 = system: NCI-H226
DLD-1 = system: DLD-1
HOP-18 = system: HOP-18
OVCAR-4 = system: OVCAR-4
HOP-92 = system: HOP-92
DMS-273 = system: DMS-273
SN12C = system: SN12C
UACC-257 = system: UACC-257
OVCAR-8 = system: OVCAR-8
NCI-H23 = system: NCI-H23
M14 = system: M14
HCC 2998 = system: HCC 2998
HL-60 = system: HL-60
NCI-H460 = system: NCI-H460
SF-268 = system: SF-268
Malme-3M = system: Malme-3M
DMS-114 = system: DMS-114
IGROV-1 = system: IGROV-1
EKVX = system: EKVX
XF498 = system: XF498
SK-MEL-5 = system: SK-MEL-5
HT-29 = system: HT-29
SW-620 = system: SW-620
SNB-78 = system: SNB-78
COLO 205 = system: COLO 205

Row | Structure (SMILES) | GI50 (786-0) | GI50 (OVCAR-3) | GI50 (HCT-15) [µM] | GI50 (SK-MEL-2) | GI50 (LXFL 529) | GI50 (SK-MEL-28) | GI50 (SF-539) | GI50 (M19-MEL) | GI50 (CCRF-CEM) | GI50 (ACHN) | GI50 (HCT-116) | GI50 (KM-20L2) | GI50 (UACC-62) | GI50 (NCI-H226) | GI50 (DLD-1) | GI50 (HOP-18) | GI50 (OVCAR-4) | GI50 (HOP-92) | GI50 (DMS-273) | GI50 (SN12C) | also measured
1 | C=C1CCC2[C@@H](CCC3[C@]2(C)CCC[C@]3(C)C(=O)OC)[C@@H]1CC=O (stereo not given in full) | 36.1 µM (inactive) | 20.5 µM (inactive) | 29.5 | 31.6 µM (inactive) | 31.9 µM (inactive) | 27.7 µM (inactive) | 17.9 µM (inactive) | 22.4 µM (inactive) | 22.4 µM (inactive) | 27.2 µM (inactive) | 16.7 µM (inactive) | 27 µM (inactive) | 24.6 µM (inactive) | 27.7 µM (inactive) | 33.6 µM (inactive) | 24.8 µM (inactive) | 27.6 µM (inactive) | 20.2 µM (inactive) | 22.4 µM (inactive) | 30.3 µM (inactive) | GI50 (UACC-257): 26.5 µM (inactive); GI50 (OVCAR-8): 23.6 µM (inactive); GI50 (NCI-H23): 25.8 µM (inactive); GI50 (M14): 19.4 µM (inactive); GI50 (HCC 2998): 61.7 µM (inactive); GI50 (HL-60): 23.5 µM (inactive); GI50 (NCI-H460): 20 µM (inactive); GI50 (SF-268): 34.6 µM (inactive); GI50 (Malme-3M): 28.8 µM (inactive); GI50 (DMS-114): 22 µM (inactive); GI50 (IGROV-1): 35.8 µM (inactive); GI50 (EKVX): 35.1 µM (inactive); GI50 (XF498): 19.9 µM (inactive); GI50 (SK-MEL-5): 17 µM (inactive); GI50 (HT-29): 28.1 µM (inactive); GI50 (SW-620): 17.6 µM (inactive); GI50 (SNB-78): 34.4 µM (inactive); GI50 (COLO 205): 36.9 µM (inactive)
2 | C=C1CCC2[C@@H](CCC3[C@]2(C)CCC[C@]3(C)C(=O)OC)C1CC=O (stereo not given in full) | 18.1 µM (inactive) | 14.2 µM (inactive) | 19.9 | 18.9 µM (inactive) | 16 µM (inactive) | 16.3 µM (inactive) | 16.9 µM (inactive) | 18.2 µM (inactive) | 14 µM (inactive) | 15.9 µM (inactive) | 15.2 µM (inactive) | 18.8 µM (inactive) | 15.2 µM (inactive) | 17.9 µM (inactive) | 21.6 µM (inactive) | 15.6 µM (inactive) | 17.4 µM (inactive) | 14.6 µM (inactive) | 20.9 µM (inactive) | 18.2 µM (inactive) | GI50 (UACC-257): 16.2 µM (inactive); GI50 (OVCAR-8): 19.4 µM (inactive); GI50 (NCI-H23): 18.6 µM (inactive); GI50 (M14): 16.5 µM (inactive); GI50 (HL-60): 15.6 µM (inactive); GI50 (NCI-H460): 15.3 µM (inactive); GI50 (SF-268): 18.2 µM (inactive); GI50 (Malme-3M): 19.1 µM (inactive); GI50 (DMS-114): 17.5 µM (inactive); GI50 (IGROV-1): 20.2 µM (inactive); GI50 (EKVX): 20.1 µM (inactive); GI50 (XF498): 14.1 µM (inactive); GI50 (SK-MEL-5): 19.6 µM (inactive); GI50 (HT-29): 16.6 µM (inactive); GI50 (SW-620): 19.1 µM (inactive); GI50 (SNB-78): 17.6 µM (inactive); GI50 (COLO 205): 18.5 µM (inactive)
